# Results reported in patent US8802633B1, “Autophagy-inducing peptide analogs” (Board of Regents, The University of Texas System, priority 2013, dated 2014).
# No end group written: not given here.
# Experiments:
# [1] = system: LC3; assay: western blot detection of the conversion of LC3-I into LC3-II; type: cell-based; details: 10 micomolar peptide, compared to 10 micomolar Tat-Beclin 1 compound
# Protocol: (§1) To further assess the components of the beclin1 peptide required for autophagy-inducing activity, a series of shorter peptides were developed. Activity was measured by biochemical autophagy assays including western blot detection of p62 (a protein degraded by autophagy) and western blot detection of the conversion of LC3-I into LC3-II (the lipidated autophagosome-associated form of LC3).
# [2] = system: p62; assay: western blot detection of p62 (a protein degraded by autophagy); type: cell-based; details: 10 micomolar peptide, compared to 10 micomolar Tat-Beclin 1 compound
# Protocol: as §1
substance,measurement,setting,value
Tat-GG-VFNATFEIWHD (Tat-GGVFNATFEIWHD) [tat protein transduction domain linked through a diglycine linker to Beclin 1 residues 269-279 with H275E and S279D],LC3-II conversion,[1],increased LC3-II conversion
same,p62 degradation,[2],increased p62 degradation
